One data set addresses T1, Tn5 transposase (Escherichia coli, UniProt Q46731, E54K/L372P/M56A).
T1 construct: made in house
The class given is binding.

A further data set concerns HIV-1. The method, then: HIV-1 transduction assay and inhibitory screen: 10,000 Ghost-R5 cells per well were plated in a 384 well plate in 49 μL media. 18 hours after plating, 1 μL of inhibitory compound, dissolved in DMSO, was added and gently mixed into solution. Following a 1 hour 37° C. incubation, HIV-1 virions were added in a final infectious volume of 100 μL. 44-48 hours after infection, 87 μL of media was removed from each well, and 13 μL/well of Bright-Glo luciferase detection reagent (Promega) was added. After a 2 minute incubation, the plates were read on a multiwell plate luminometer.
In parallel, cells infected with virus and compound were assayed for luciferase expression by the addition of […] of Bright-Glo reagent, as described above. In this way, effect of the inhibitory compounds on luciferase expression brought about by successful transduction was measured in the constant presence of the compounds.

A further data set relates to Ghost-R5 cells. The experiment in a line: Cytotoxicity assay (Cell Titer Glo). The class given is cell-based. The method, then: Cytotoxicity assay: Cytotoxicity assays were performed exactly as the infection assay described above, except media without virus was added following compound addition, and Cell Titer Glo (Promega) viability reagent was added in place of Bright Glo.
On the technique in general: ATP-based viability assays read luminescence as a measure of living cells.

The subject of data set [1] is HIV reverse transcription. The data set can be described thus: Quantitative real-time PCR of reverse transcripts in acutely infected cells. The settings on record: 75 μM inhibitor, QPCR. Format: cell-based, HIV-1. The method, then: Quantitative real-time PCR of reverse transcripts, detection of transduction in newly infected cells, and effect of compounds on established provirus expression in stably infected cells: 10,000 Ghost-R5 cells were plated in 96 well dishes, treated with compound in a total volume of 75 μL, and incubated at 37° C. for 1 hour. Virus was then added in an additional volume of 25 μL. The final infectious volume was 100 μL, the final DMSO concentration was 1%, and the final compound concentration was as indicated. DNA was harvested using the DNeasy kit (Qiagen) 24 hours after infection in the constant presence of inhibitory compounds. Late DNA products of HIV reverse transcription were quantitated using the primers MH531 and MH532, and the probe LTR-P, as described in Burke, T. R. et al., J Med Chem 38:4171-8, 1995, herein incorporated by reference in its entirety.

Data set [2] relates to luciferase expression from proviral DNA. The data set can be described thus: Established provirus luciferase expression in stably infected Ghost-R5 cells. Conditions: 75 μM inhibitor, chronically infected cells. The class given is cell-based, HIV-1.
Protocol: To assess the potential effects of the inhibitory compounds on post-integration events such as transcription, translation, and luciferase enzyme stability and activity, Ghost-R5 cells stably infected several weeks earlier with the same virus preparation were incubated with inhibitory compound in 96 well dishes and luciferase activity was monitored 48 hours later by the addition of 100 μL of Bright-Glo reagent to each well, as described above.
The target of another data set is HIV-1 integrase (Human immunodeficiency virus type 1 group M subtype B, UniProt P04585). The experiment in a line: HIV-1 integrase assay (3' strand processing, PAGE). The class given is biochemical. Also noted: made in house. The method, then: HIV-1 integrase assay: HIV-1 integrase activity was measured as described in Daniel, R. et al., AIDS Res Hum Retroviruses 20:135-44, 2004 (incorporated by reference in its entirety), except that 1.0 μL of either DMSO or inhibitor were added to the reactions. Briefly, HIV-1 integrase (1 μM, final concentration) was pre-incubated with various concentrations of inhibitor at 30° C. for 30 min. A 21-base pair ^32P labeled substrate (1×10^6 dpm), representing the U5 end of the viral genome, and MnCl2 (10 mM, final concentration) were subsequently added to the reaction. The reaction proceeded for 15 min. at 37° C. The reactions were subsequently quenched using EDTA (10 mM, final concentration), and the products separated on a 20% denaturing polyacrylamide gel.

Data set [3] concerns restriction enzyme BsmA I. The data set can be described thus: Inhibition of the restriction enzyme BsmA I (compound specificity). The settings on record: 120 μM compound. Format: biochemical. The method, then: Inhibition of the restriction enzyme BsmA I was analyzed to determine compound specificity. Reactions were carried out in 2×NEB Buffer 3 with 160 nM dsDNA, 10 units of BsmA I (New England Biolabs), and 120 μM lead compound. Reactions were incubated at 55° C. for one hour followed by a 20 minute 80° C. heat inactivation step prior to gel electrophoresis. Samples were loaded onto a 9% native polyacrylamide gel and run at 300V for 2.5 hours. Gels were subsequently imaged and quantitated as described for the synapsis assays.

Entries after “also recorded” stand apart in the source; their conditions may differ.

Protocol for Tn5 transposase: For FP analysis, 60 μL reactions were analyzed using the FP protocol on a Wallac Victor V plate reader and a 7% native polyacrylamide gel was used in gel shift assays. For compound screening and subsequent analysis, 1 μL of either DMSO or test compound (final concentration 80 KIM) was added to the synapsis reactions. Compound screening was carried out using a Beckman Coulter Biomek FX in a 384 well format. Compounds identified as hits were rescreened using gel shift assays under synapsis conditions with a 120 μM compound concentration. IC50 values were obtained by fitting inhibitor titration data (0, 0.01, 0.05, 0.1, 0.5, 2.5, 10, 20, 35, 50, 100, 200, 400, 800 μM) to an exponential decay.

For the compound `O=C(/C=C/c1ccccc1)C1=C(O)C(=O)N(c2ccccc2)C1c1cccc([N+](=O)[O-])c1` (stereo not drawn) [compound 10], the “inhibition of transposase assembly (in words)” value against Tn5 transposase is “inhibit”. Also, the “inhibition of HIV-1 infection in cells (in words)” value (from here on “inhibition of HIV-1 infection”) with HIV-1 is reported as “inhibit”. In addition, in the data set on Ghost-R5 cells (75 μM inhibitor), the “effect on gross cell viability” value was “no significant inhibitory effect”. Moreover, the “LD50 relative to ED50” value in the data set on Ghost-R5 cells (Ghost-R5 cells, cytotoxicity vs transduction) was “at least 2 fold”. Further, the “effect on reverse transcription (viral DNA synthesis)” value (from here on “effect on reverse transcription”) in data set [1] was “either uninhibited, or only inhibited to a small extent; also recorded: no significant inhibitory effect”. Further, the “effect on luciferase expression from proviral DNA” value (“effect on luciferase expression” below) in data set [2] is “no significant inhibitory effect”. For the same compound, the “inhibition of integrase in vitro (in words)” value (shortened to “inhibition of integrase”) at HIV-1 integrase is “inhibit”.

For `O=C(/C=C/c1ccccc1)C1=C(O)C(=O)N(c2cccc(C(F)(F)F)c2)C1c1ccc([N+](=O)[O-])cc1` (stereo not drawn) [compound 10-F], the “inhibition of transposase assembly (in words)” value on Tn5 transposase is reported as “inhibit”. The “inhibition of BsmA I activity” value in data set [3] is on record as “partially inhibits”. Besides, in the data set on HIV-1, the “inhibition of HIV-1 infection” value is “inhibit”. Moreover, the “effect on reverse transcription” value in data set [1] was “either uninhibited, or only inhibited to a small extent; also recorded: no significant inhibitory effect”. The “effect on luciferase expression” value in data set [2] is reported as “no significant inhibitory effect”. Besides, the “inhibition of integrase” value on HIV-1 integrase is reported as “inhibit”.

For `COc1ccc(N2C(=O)C(O)=C(C(=O)/C=C/c3ccccc3)C2c2cccc([N+](=O)[O-])c2)cc1` (stereo not drawn) [10-B], the “inhibition of transposase assembly (in words)” value at Tn5 transposase is given as “inhibit”. Further, the “inhibition of HIV-1 infection” value in the data set with HIV-1 is “inhibit”. Besides, the “effect on reverse transcription” value in data set [1] is “either uninhibited, or only inhibited to a small extent; also recorded: no significant inhibitory effect”. In addition, in data set [2], the “effect on luciferase expression” value is “no significant inhibitory effect”. Besides, the “inhibition of integrase” value at HIV-1 integrase is given as “inhibit”.

(Values after patent publication US20090098548A1, “MODULATORS OF ENZYMATIC NUCLEIC ACID ELEMENTS MOBILIZATION” (priority 2004, published 2009).)
